Experimental data reported in paper PMC4503722, “Novel Phenotypic Outcomes Identified for a Public Collection of Approved Drugs from a Publicly Accessible Panel of Assays” (PLoS ONE, 2015).
Where two headings read alike, the source gives them in different places.

Tests used:
[1] = tested on: endothelial tube formation in co-cultures of ECFCs and ADSCs treated with VEGF; experiment: cells; type: cell-based, human; conditions: for IC50: read-out: VEGF_ADSC\ECFC Angio CD31 TubeArea summarized IC50
HeLa cells = experiment: cells; type: cell-based;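 on Hela CellCycMod PI 4N summarized IC50: value tracks stimulation of 4N DNA content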
SNU-C1 = experiment: cells; type: cell-based
[2] = tested on: ECFC/ADSC co-culture cell nuclei number; conditions: for IC50: read-out: VEGF_ADSC\ECFC Angio Hoechst NucArea summarized IC50
DLD-1 = experiment: cells; type: cell-based
SW480 = experiment: cells; type: cell-based
HCT116 = experiment: cells; type: cell-based
Colo320 = experiment: cells; type: cell-based
RKO = experiment: cells; type: cell-based
[3] = assay number 14, 2N, read-out: Hela CellCycMod PI 2N summarized IC50
[4] = assay number 15, S phase, read-out: Hela CellCycMod PI S Phase summarized IC50
[5] = assay number 16, 4N, read-out: Hela CellCycMod PI 4N summarized IC50
[6] = assay number 17, MI, read-out: Hela CellCycMod PI MI summarized IC50
[7] = assay number 18, cell number, read-out: Hela CellCycMod PI Cell Number summarized IC50

Structure (SMILES)	VEGF_ADSC\ECFC Angio CD31 TubeArea IC50/EC50 [1] [µM]	Hela CellCycMod PI 2N IC50/EC50 (HeLa cells; assay number 14, 2N) [µM]	Hela CellCycMod PI S Phase IC50/EC50 (HeLa cells; assay number 15, S phase) [µM]	Hela CellCycMod PI 4N IC50/EC50 (HeLa cells; assay number 16, 4N) [µM]	Hela CellCycMod PI MI IC50/EC50 (HeLa cells; assay number 17, MI) [µM]	Hela CellCycMod PI Cell Number IC50/EC50 (HeLa cells; assay number 18, cell number) [µM]	VEGF_ADSC\ECFC Angio Hoechst NucArea IC50/EC50 [2] [µM]	further results
CN(Cc1cnc2nc(N)nc(N)c2n1)c1ccc(C(=O)N[C@@H](CCC(=O)O)C(=O)O)cc1 [NCGC00025060-15]								IC50 [1]: > 10 µM; IC50 (HeLa cells; [3]): > 10 µM; IC50 (HeLa cells; [4]): > 10 µM; IC50 (HeLa cells; [5]): > 10 µM; IC50 (HeLa cells; [6]): > 10 µM; IC50 (HeLa cells; [7]): > 10 µM; IC50 (SNU-C1; assay number 30, basal, read-out: Basal_Viability ATP SNU-C1 summarized IC50): > 20 µM; IC50 [2]: > 10 µM
O=c1[nH]c(=O)n([C@H]2C[C@H](O)[C@@H](CO)O2)cc1I [NCGC00179673-03]								IC50 [1]: 0.681 µM; IC50 (HeLa cells; [3]): > 10 µM; IC50 (HeLa cells; [4]): > 10 µM; IC50 (HeLa cells; [5]): > 10 µM; IC50 (HeLa cells; [6]): > 10 µM; IC50 (HeLa cells; [7]): > 10 µM; IC50 [2]: > 10 µM
CC(=O)Nc1ccn(C2COC(COC(=O)c3ccccc3)O2)c(=O)n1 (stereo not drawn) [NCGC00183850-01]	2.3271	> 10	0.312	> 10	> 10	0.2813	> 10	
CN(C)/N=N/c1nc[nH]c1C(N)=O [NCGC00091861-07]								IC50/EC50, VEGF_ADSC\ECFC Angio CD31 TubeArea (assay number 2) [1]: 4.5862 µM; IC50/EC50, Hela CellCycMod PI 2N (assay number 14) (HeLa cells; 2N): > 10 µM; IC50/EC50, Hela CellCycMod PI 4N (assay number 16) (HeLa cells; 4N): > 10 µM; IC50/EC50, Hela CellCycMod PI Cell Number (assay number 18) (HeLa cells): > 10 µM; IC50/EC50, Hela CellCycMod PI MI (assay number 17) (HeLa cells; MI): > 10 µM; IC50/EC50, Hela CellCycMod PI S Phase (assay number 15) (HeLa cells): > 10 µM; IC50/EC50, VEGF_ADSC\ECFC Angio Hoechst NucArea (assay number 3) [2]: > 10 µM
CCCCCCCCCCCCCCCCNc1ccc(C(=O)O)cc1 [NCGC00261985-01]	0.3673	> 10		> 10	> 10	> 10	> 10	
O=C1c2c(O)cccc2Cc2cccc(O)c21 [NCGC00091330-07]								IC50 [1]: 0.604 µM; IC50 (HeLa cells; [3]): > 10 µM; IC50 (HeLa cells; [4]): > 10 µM; IC50 (HeLa cells; [5]): > 10 µM; IC50 (HeLa cells; [6]): > 10 µM; IC50 (HeLa cells; [7]): > 10 µM; IC50 [2]: > 10 µM
COc1ccc(-n2nc(CCC(=O)N(C)O)cc2-c2ccc(Cl)cc2)cc1 [NCGC00253573-01]								Basal_Viability ATP DLD-1 IC50/EC50 (DLD-1): 2.0757 µM; Basal_Viability ATP SW480 IC50/EC50 (SW480): 2.8124 µM; Basal_Viability ATP HCT116 IC50/EC50 (HCT116): 6.5453 µM; Basal_Viability ATP Colo 320 IC50/EC50 (Colo320): 0.6615 µM; Basal_Viability ATP RKO IC50/EC50 (RKO): 4.1076 µM; Basal_Viability ATP SNU-C1 IC50/EC50 (SNU-C1): 1.7479 µM
COc1ccc(/C=C/C(=O)c2ccc(OC)cc2OC)cc1 [NCGC00160442-03]	6.6604	> 10		> 10	> 10	0.7082	> 10	
c1cnc2cc3c(cc2n1)C1CNCC3C1 [NCGC00247735-02]								Basal_Viability ATP DLD-1 IC50/EC50 (DLD-1; assay number 23, basal): > 6.6667 µM; Basal_Viability ATP SW480 IC50/EC50 (SW480; assay number 24, basal): > 6.6667 µM; Basal_Viability ATP HCT116 IC50/EC50 (HCT116; assay number 25, basal): > 20 µM; Basal_Viability ATP Colo 320 IC50/EC50 (Colo320; assay number 27, basal): > 20 µM
CC(C)OC(=O)OCOP(=O)(CO[C@H](C)Cn1cnc2c(N)ncnc21)OCOC(=O)OC(C)C.O=C(O)/C=C/C(=O)O [NCGC00183876-03]	3.8408	> 10		> 10	> 10	0.2888	> 10	
Nc1nc(=O)n([C@@H]2O[C@H](CO)[C@@H](O)[C@@H]2F)cc1I [NCGC00262963-01]	3.4717	> 10	> 10	> 10	> 10	8.504	> 10	
Nc1nc(F)nc2c1ncn2[C@@H]1O[C@H](CO)[C@@H](O)[C@@H]1O [NCGC00182047-03]	8.4496	> 10	> 10	> 10	> 10	> 10	> 10	
CC(=O)Oc1ccccc1C(=O)Nc1ncc([N+](=O)[O-])s1 [NCGC00090774-05]	2.0612	> 10	> 10	> 10	> 10	> 10	> 10	
C[C@@H]1C[C@H]2[C@@H]3CCC4=CC(=O)C=C[C@]4(C)[C@@]3(Cl)[C@@H](O)C[C@]2(C)[C@@]1(OC(=O)c1ccco1)C(=O)CCl [NCGC00179578-03]	4.9886	> 10	> 10	> 10	> 10		> 10	
COCCOC(=O)C1=C(C)NC(C)=C(C(=O)OC/C=C/c2ccccc2)C1c1cccc([N+](=O)[O-])c1 (stereo not drawn) [NCGC00162150-04]	6.4204	> 10	> 10	> 10	> 10	> 10	> 10	
CCCCCCCCCCCCCCCC[N+](C)(C)Cc1ccccc1.[Cl-] [NCGC00344524-01]	2.5333	> 10	> 10	> 10	> 10	> 10	> 10	
CC(=O)N(O)CCCCCNC(=O)CCC(=O)N(O)CCCCCNC(=O)CCC(=O)N(O)CCCCCN [NCGC00178802-06]								IC50/EC50, VEGF_ADSC\ECFC Angio CD31 TubeArea (assay number 2) [1]: 4.5338 µM; IC50/EC50, Hela CellCycMod PI 2N (assay number 14) (HeLa cells; 2N): > 10 µM; IC50/EC50, Hela CellCycMod PI 4N (assay number 16) (HeLa cells; 4N): > 10 µM; IC50/EC50, Hela CellCycMod PI Cell Number (assay number 18) (HeLa cells): > 10 µM; IC50/EC50, Hela CellCycMod PI MI (assay number 17) (HeLa cells; MI): > 10 µM; IC50/EC50, Hela CellCycMod PI S Phase (assay number 15) (HeLa cells): > 10 µM; IC50/EC50, VEGF_ADSC\ECFC Angio Hoechst NucArea (assay number 3) [2]: > 10 µM
Clc1ccc(Nc2nnc(Cc3ccncc3)c3ccccc23)cc1 [NCGC00181350-03]	0.1109	> 10	> 10	> 10	> 10	> 10	> 10	
O=C(CCBr)N1CCN(C(=O)CCBr)CC1 [NCGC00095048-06]	1.3723	> 10	> 10	> 10	> 10	> 10	> 10	
C[C@]12CC[C@@H]3c4ccc(O)cc4CC[C@H]3[C@@H]1CC[C@@H]2OC(=O)CCC1CCCC1 [NCGC00166134-02]	6.3667	> 10	> 10	> 10	> 10	> 10	> 10	
CCCCCCCCCCCC(=O)[O][Sn]([CH2]CCC)([CH2]CCC)[O]C(=O)CCCCCCCCCCC [NCGC00166115-02]								IC50 [1]: 2.01 µM; IC50 (HeLa cells; [3]): > 10 µM; IC50 (HeLa cells; [4]): > 10 µM; IC50 (HeLa cells; [5]): > 10 µM; IC50 (HeLa cells; [6]): > 10 µM; IC50 (HeLa cells; [7]): > 10 µM; IC50 [2]: > 10 µM
COc1ccc(Cc2nccc3cc(OC)c(OC)cc23)cc1OC [NCGC00015810-12]								IC50 [1]: 7.8 µM; IC50 (HeLa cells; [3]): > 10 µM; IC50 (HeLa cells; [5]): > 10 µM; IC50 (HeLa cells; [6]): > 10 µM; IC50 (HeLa cells; [7]): > 10 µM; IC50 [2]: > 10 µM
CO[C@@H]1[C@@H](OC)[C@H](C)[C@@](O)(CC(=O)O)O[C@H]1[C@H](C)[C@H]1O[C@@]2(CC[C@@](C)([C@H]3CC[C@@](C)([C@@H]4O[C@@H]([C@H]5O[C@](C)(O)[C@H](C)C[C@@H]5C)C[C@@H]4OC4C[C@H](OC)[C@@H](OC)[C@H](C)O4)O3)O2)C[C@H](O)[C@H]1C.N (stereo partly drawn) [NCGC00263563-01]	0.2517	> 10	> 10	> 10	> 10	2.751	2.568	
COc1ccc2cc3[n+](cc2c1OC)CCc1cc2c(cc1-3)OCO2 [NCGC00016526-07]	2.6815	> 10		> 10	> 10	> 10	> 10	
